Data as given in ChEMBL document CHEMBL1151082, “Structure-directed discovery of an inhibitor of the binding of HIV GP120 to the CD4 receptor” (Bioorg Med Chem Lett, 1993).

Key:
[1] = molecular target: T1, Envelope glycoprotein gp160 (Human immunodeficiency virus type 1 group M subtype B (isolate HXB2)(HIV-1), UniProt P04578); experiment: Tested for inhibition of binding of soluble recombinant CD4-gp120 using ELISA assay; IA is Inactive
[2] = molecular target: T1, Envelope glycoprotein gp160; experiment: Tested for inhibition of binding of soluble recombinant CD4-gp120 using ELISA assay
[3] = molecular target: T1, Envelope glycoprotein gp160; experiment: Tested for rate constant of binding to inhibit soluble recombinant CD4-gp120; value ranges form 4-20 uM
[4] = molecular target: T1, Envelope glycoprotein gp160; experiment: Tested for ability to block the CD4-gp120 interaction measured by binding of [125I]sCD4 to gp120
[5] = molecular target: T1, Envelope glycoprotein gp160; experiment: Tested in an HIV viral syncytium assay for inhibition of binding of recombinant CD4-gp120

Compound	IC50 [1]	other results
CCN(CC1CC(c2ccccc2)(c2ccccc2)C(=O)O1)C(=O)C(=O)OC (stereo unspecified)	Not Active	
CN(C)CCNCC1CC(c2ccccc2)(c2ccccc2)C(=O)O1 (stereo unspecified)	Not Active	
CCN(CCN(C)C)CC1CC(c2ccccc2)(c2ccccc2)C(=O)O1 (stereo unspecified)	Not Active	
CCCCN(CCCC)CC1CC(c2ccccc2)(c2ccccc2)C(=O)O1 (stereo unspecified)	Not Active	
COC(=O)C(=O)N1CCC[C@@H]1C(=O)N[C@H](Cc1ccccc1)C(=O)OCc1ccccc1		IC50 [2]: 300 µM
CC(C)C[C@H](NC(=O)[C@H](Cc1ccccc1)N1NC(=O)[C@H]([C@@H](N)CO)CCC(=O)N[C@@H](CO)C1=O)C(=O)N[C@H](C(=O)NCc1ccccc1)[C@@H](C)O		IC50 [2]: > 100 µM; Kd [3]: 4 µM
O=C1OC(CBr)CC1(c1ccccc1)c1ccccc1 (stereo unspecified)	Not Active	
CC1(C)CN(CC2CC(c3ccccc3)(c3ccccc3)C(=O)O2)C=N1 (stereo unspecified)	Not Active	
CCN(Cc1ccccc1)CC1CC(c2ccccc2)(c2ccccc2)C(=O)O1 (stereo unspecified)	Not Active	
O=C1OC(C[N+]23CCC(CC2)CC3)CC1(c1ccccc1)c1ccccc1.[Br-] (stereo unspecified)	Not Active	
CCN(CCCl)CC1CC(c2ccccc2)(c2ccccc2)C(=O)O1 (stereo unspecified)		IC50 [4]: 30 µM; IC50 [2]: 35 µM; IC50 [5]: 100 µM
CCNCC1CC(c2ccccc2)(c2ccccc2)C(=O)O1 (stereo unspecified)	Not Active	
CC1=NCCN1CC1CC(c2ccccc2)(c2ccccc2)C(=O)O1 (stereo unspecified)	Not Active	
